Legend:
[1] = Biodistribution in trachea of BALB/cAnNCrlCrlj mouse at 0.5 umol/kg administered as [14C]labeled compound intranasally as single dose measured 24 hrs post dose by liquid scintillation counting; assay type: ADME, organism-based; conditions: in vivo, inhaled_or_intranasal
[2] = Biodistribution in respiratory tract of BALB/cAnNCrlCrlj mouse at 0.5 umol/kg administered as [14C]labeled compound intranasally as single dose measured 6 hrs post dose by whole body autoradiography; assay type: ADME, organism-based; conditions: in vivo, inhaled_or_intranasal
[3] = Biodistribution in trachea of BALB/cAnNCrlCrlj mouse at 0.5 umol/kg administered as [14C]labeled compound intranasally as single dose measured 0.25 hrs post dose by liquid scintillation counting; assay type: ADME, organism-based; conditions: in vivo, inhaled_or_intranasal
Lung [4] = experiment: Biodistribution in lung of BALB/cAnNCrlCrlj mouse at 0.5 umol/kg administered as [14C]labeled compound intranasally as single dose measured 24 hrs post dose by liquid scintillation counting; assay type: ADME, organism-based; conditions: in vivo, inhaled_or_intranasal
[5] = Biodistribution in respiratory tract of BALB/cAnNCrlCrlj mouse at 0.5 umol/kg administered as [14C]labeled compound intranasally as single dose measured 72 hrs post dose by whole body autoradiography; assay type: ADME, organism-based; conditions: in vivo, inhaled_or_intranasal
Lung [6] = experiment: Biodistribution in lung of BALB/cAnNCrlCrlj mouse at 0.5 umol/kg administered as [14C]labeled compound intranasally as single dose measured 0.25 hrs post dose by liquid scintillation counting; assay type: ADME, organism-based; conditions: in vivo, inhaled_or_intranasal
Influenza A virus = experiment: Antiviral activity against Influenza A virus (A/Puerto Rico/8/1934(H1N1)); assay type: functional, organism-based
Lung [7] = experiment: Tmax in BALB/cAnNCrlCrlj mouse lung at 0.5 umol/kg administered as [14C]labeled compound intranasally as single dose; assay type: ADME, organism-based; conditions: in vivo, inhaled_or_intranasal
Lung [8] = experiment: Half life in BALB/cAnNCrlCrlj mouse lung at 0.5 umol/kg administered as [14C]labeled compound intranasally as single dose; assay type: ADME, organism-based; conditions: in vivo, inhaled_or_intranasal
Lung [9] = experiment: Drug level in BALB/cAnNCrlCrlj mouse lung at 0.5 umol/kg administered as [14C]labeled compound intranasally as single dose measured 120 hrs post dose; assay type: ADME, tissue-based; conditions: in vivo, inhaled_or_intranasal
Lung [10] = experiment: Cmax in BALB/cAnNCrlCrlj mouse lung assessed as compound concentration per gram of tissue at 0.5 umol/kg administered as [14C]labeled compound intranasally as single dose; assay type: ADME, organism-based; design: dose 0.5 umol/kg, route nasal; conditions: in vivo, inhaled_or_intranasal
[11] = Prodrug conversion in BALB/cAnNCrlCrlj mouse lung S9 fraction assessed as compound conversion to R-125489 at 10 uM in presence of esterase inhibitor eserine administered 10 mins before compound addition relative to untreated control; assay type: ADME; conditions: s9, 10 min
[12] = Prodrug conversion in BALB/cAnNCrlCrlj mouse lung S9 fraction assessed as compound conversion to R-125489 at 10 uM in presence of esterase inhibitor EDTA administered 10 mins before compound addition relative to untreated control; assay type: ADME; conditions: s9, 10 min
[13] = Prodrug conversion in BALB/cAnNCrlCrlj mouse lung S9 fraction assessed as compound conversion to R-125489 at 10 uM in presence of esterase inhibitor DFP administered 10 mins before compound addition relative to untreated control; assay type: ADME; conditions: s9, 10 min
[14] = Prodrug conversion in BALB/cAnNCrlCrlj mouse lung S9 fraction assessed as compound conversion to R-125489 at 10 uM in presence of esterase inhibitor PCMB administered 10 mins before compound addition relative to untreated control; assay type: ADME; conditions: s9, 10 min
[15] = Prodrug conversion in BALB/cAnNCrlCrlj mouse lung S9 fraction assessed as compound conversion to R-125489 at 10 uM in presence of esterase inhibitor DTNB administered 10 mins before compound addition relative to untreated control; assay type: ADME; conditions: s9, 10 min
[16] = Prodrug conversion in BALB/cAnNCrlCrlj mouse lung S9 fraction assessed as compound conversion to R-125489 at 10 uM relative to untreated control; assay type: ADME; conditions: s9, 10 µM
[17] = Prodrug conversion in BALB/cAnNCrlCrlj mouse lung S9 fraction assessed as compound conversion to R-125489 at 10 uM in presence of esterase inhibitor BNPP administered 10 mins before compound addition relative to untreated control; assay type: ADME; conditions: s9, 10 min
[18] = Prodrug conversion in BALB/cAnNCrlCrlj mouse trachea assessed as compound conversion to R-125489 at 10 uM relative to untreated control; assay type: ADME, tissue-based
[19] = Prodrug conversion in BALB/cAnNCrlCrlj mouse trachea assessed as compound conversion to R-125489 at 10 uM in presence of esterase inhibitor DFP administered 10 mins before compound addition relative to untreated control; assay type: ADME, tissue-based

For `CCCCCCCC(=O)OC[C@@H](O)[C@@H](OC)[C@@H]1OC(C(=O)O)=C[C@H](N[14C](=N)N)[C@H]1NC(C)=O`, the Drug uptake [1] was 0.99 nmolequiv/g, the Drug uptake [2] was “Active” and the Drug uptake [3] was 4 nmolequiv/g. For the same molecule, the Drug uptake (Lung [4]) was 5.57 nmolequiv/g, the Drug uptake [5] was “Active” and the Drug uptake (Lung [6]) was 30 nmolequiv/g.

In the case of `CO[C@@H]([C@@H]1OC(C(=O)O)=C[C@H](N[14C](=N)N)[C@H]1NC(C)=O)[C@H](O)CO`, the Drug uptake [3] is reported as 4 nmolequiv/g and the Drug uptake (Lung [6]) is reported as 30 nmolequiv/g.

With `CO[C@@H]([C@@H]1OC(C(=O)O)=C[C@H](NC(=N)N)[C@H]1NC(C)=O)[C@H](O)CO` [LANINAMIVIR] the IC50 (Influenza A virus) was 5.97 nM, the Tmax (Lung [7]) was 3 h and the t1/2 (Lung [8]) was 41.4 h. For the same molecule, the Drug uptake (Lung [9]) was 0.915 nmol/g and the Cmax (Lung [10]) was 6.41 nmol/g.

With `CC(=O)N[C@H]1[C@H]([C@H](O)[C@H](O)CO)OC(C(=O)O)=C[C@@H]1N[14C](=N)N` [[14C]-ZANAMIVIR] the Drug uptake [3] was 4 nmolequiv/g and the Drug uptake (Lung [6]) was 30 nmolequiv/g.

`CCCCCCCC(=O)OC[C@@H](O)[C@@H](OC)[C@@H]1OC(C(=O)O)=C[C@H](NC(=N)N)[C@H]1NC(C)=O` [LANINAMIVIR OCTANOATE] showed an Activity [11] of 31.9%, an Activity [12] of 130.7% and an Activity [13] of 13.6%. It also gave an Activity [14] of 106.5%, an Activity [15] of 42% and an Activity [16] of 100%. For the same molecule, the Activity [17] was 21%, the Activity [18] was 100% and the t1/2 (Lung [8]) was 0.833 h. It also gave an Activity [19] of 44.1%.

Source: ChEMBL document CHEMBL1671670, “CS-8958, a prodrug of the novel neuraminidase inhibitor R-125489, demonstrates a favorable long-retention profile in the mouse respiratory tract” (Antimicrob Agents Chemother, 2009)
